# Like-named read-outs stand apart in the source and are kept apart here.
# Molecular target: CDK7/CycH/MNAT1 (Homo sapiens (Human), UniProt P50613)
# Assay: Biochemical assay for CDK7 (TR-FRET kinase assay)
# Settings: for IC50: read-out: IC50; for inhibition at 10 µM: read-out: % inhibition @ 10 μM
# Method: The ability of compounds to inhibit CDK7 kinase activity was tested in a TR-FRET assay using 5 nM of CDK7/CycH/MNAT1 obtained from Invitrogen, USA. Test compounds were pre-incubated with the kinase at room temperature for 60 min. After incubation, substrate mix [100 nM Ultra-light MBP (Perkin Elmer, USA) and 1 mM ATP (Sigma)] was added. The above reaction was stopped by the addition of 40 mM EDTA after 60 minutes of kinase reaction. 1 nM Eu-labelled antiphospho-MBP antibody [Perkin Elmer, USA] was added, mixed well and the fluorescence emission at 615 nm and 665 nm [excitation at 340 nm] was measured. The final DMSO concentration in the assay was 1%. For IC50 determination, appropriate concentrations were made by ⅓^rd serial dilutions of 10 mM DMSO stock solution of test compound. All the fluorescence measurements were made in a Victor 3 Multilabel Counter [Perkin Elmer, USA]. The IC50 was determined by fitting the dose response data to sigmoidal curve fitting equation using GraphPad Prism software V5. To identify compounds that inhibit CDK7 irreversibly, time depended inhibition studies were carried by pre-incubating compound with the enzyme at three time points (20, 60 and 180 min) and carrying out assay as described above.
# [1] = 60 min pre-incubation, 1 mM ATP
# [2] = 10 μM compound, 60 min pre-incubation, 1 mM ATP
# CDK7/CycH/MNAT1, sequence (P50613 whole entry): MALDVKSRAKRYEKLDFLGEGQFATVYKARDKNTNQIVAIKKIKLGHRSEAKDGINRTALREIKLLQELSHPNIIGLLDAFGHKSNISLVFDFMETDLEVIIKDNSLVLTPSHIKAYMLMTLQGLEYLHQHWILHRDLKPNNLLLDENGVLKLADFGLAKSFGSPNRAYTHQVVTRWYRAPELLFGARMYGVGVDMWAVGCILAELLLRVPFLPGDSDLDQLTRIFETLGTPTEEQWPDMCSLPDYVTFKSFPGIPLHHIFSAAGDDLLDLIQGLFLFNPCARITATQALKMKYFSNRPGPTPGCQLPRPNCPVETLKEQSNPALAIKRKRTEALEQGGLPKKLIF
# CDK7/CycH/MNAT1, sequence (P51946 whole entry partner): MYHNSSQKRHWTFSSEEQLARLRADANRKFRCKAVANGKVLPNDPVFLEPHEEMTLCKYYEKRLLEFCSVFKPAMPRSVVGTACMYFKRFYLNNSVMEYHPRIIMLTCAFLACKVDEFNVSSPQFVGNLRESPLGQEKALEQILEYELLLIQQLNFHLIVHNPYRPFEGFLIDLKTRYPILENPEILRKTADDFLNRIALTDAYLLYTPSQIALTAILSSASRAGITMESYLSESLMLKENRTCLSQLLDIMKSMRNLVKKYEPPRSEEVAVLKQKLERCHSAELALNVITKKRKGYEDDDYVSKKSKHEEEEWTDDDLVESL
# CDK7/CycH/MNAT1, sequence (P51948 whole entry partner): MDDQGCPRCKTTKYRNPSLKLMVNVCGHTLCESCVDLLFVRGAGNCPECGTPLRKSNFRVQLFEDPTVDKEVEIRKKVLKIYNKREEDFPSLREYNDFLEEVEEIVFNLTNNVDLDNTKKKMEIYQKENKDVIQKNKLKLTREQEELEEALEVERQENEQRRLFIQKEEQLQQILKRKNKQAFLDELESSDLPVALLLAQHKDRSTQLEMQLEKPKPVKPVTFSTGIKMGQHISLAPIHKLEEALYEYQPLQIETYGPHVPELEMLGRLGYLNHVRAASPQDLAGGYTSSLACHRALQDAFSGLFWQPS
SMILES,IC50 [1] [nM],inhibition at 10 µM [%],inhibition at 10 µM [2] [%]
"CC(C)c1cnn2c(Nc3cccc(NC(=O)c4ccc(NC(=O)/C=C/CN(C)C)cc4)c3)nc(OC3CCN(C)CC3)nc12 [Compound 130, (E)-4-(4-(dimethylamino)but-2-enamido)-N-(3-((8-isopropyl-2-((1-methylpiperidin-4-yl)oxy)pyrazolo[1,5-a][1,3,5]triazin-4-yl)amino)phenyl)benzamide]",< 300,97,–
"CC(C)c1cnn2c(NCc3cccc(NC(=O)C4CCN4C/C=C/C(=O)N(C)C)c3)nc(NC3CCOCC3)nc12 (centres unmarked) [Compound 76, (E)-1-(4-(dimethylamino)-4-oxobut-2-en-1-yl)-N-(3-(((8-isopropyl-2-((tetrahydro-2H-pyran-4-yl)amino)pyrazolo[1,5-a][1,3,5]triazin-4-yl)amino)methyl)phenyl)azetidine-2-carboxamide]",> 1000,–,81
"C=CC(=O)N1CCCCC1C(=O)Nc1cccc(CNc2nc(N[C@H]3CCCOC3)nc3c(C(C)C)cnn23)c1 (stereo partly drawn) [Compound 16, 1-acryloyl-N-(3-(((8-isopropyl-2-(((S)-tetrahydro-2H-pyran-3-yl)amino)pyrazolo[1,5-a][1,3,5]triazin-4-yl)amino)methyl)phenyl)piperidine-2-carboxamide]",< 300,–,–
"COC/C=C/C(=O)N1CCC(C(=O)Nc2cccc(CNc3nc(NC4CCOCC4)nc4c(C(C)C)cnn34)c2)C1 (centres unmarked) [Compound 68, (E)-N-(3-(((8-isopropyl-2-((tetrahydro-2H-pyran-4-yl)amino)pyrazolo[1,5-a][1,3,5]triazin-4-yl)amino)methyl)phenyl)-1-(4-methoxybut-2-enoyl)pyrrolidine-3-carboxamide]",300 to 1000,–,92
"CC(C)c1cnn2c(NCc3ccc(F)c(NC(=O)C4CCCN(C(=O)/C=C/CN(C)C)C4)c3)nc(OC3CCN(C)CC3)nc12 (centres unmarked) [Compound 123, (E)-1-(4-(dimethylamino)but-2-enoyl)-N-(2-fluoro-5-(((8-isopropyl-2-((1-methylpiperidin-4-yl)oxy)pyrazolo[1,5-a][1,3,5]triazin-4-yl)amino)methyl)phenyl)piperidine-3-carboxamide]",< 300,–,96
"C/C=C/C(=O)N1CCC1C(=O)Nc1cccc(CNc2nc(NC3CCOCC3)nc3c(C(C)C)cnn23)c1 (centres unmarked) [Compound 65, (E)-1-(but-2-enoyl)-N-(3-(((8-isopropyl-2-((tetrahydro-2H-pyran-4-yl)amino)pyrazolo[1,5-a][1,3,5]triazin-4-yl)amino)methyl)phenyl)azetidine-2-carboxamide]",> 1000,–,86
"C=CC(=O)N1CCCC(C(=O)Nc2ccc(CNc3nc(OC4CCN(C)CC4)nc4c(C(C)C)cnn34)c[n+]2[O-])C1 (centres unmarked) [Compound 120, 2-(1-acryloylpiperidine-3-carboxamido)-5-(((8-isopropyl-2-((1-methylpiperidin-4-yl)oxy)pyrazolo[1,5-a][1,3,5]triazin-4-yl)amino)methyl)pyridine 1-oxide]",< 300,–,93
"CC(C)c1cnn2c(NCc3cccc(NC(=O)/C=C/CN4CCCC4)c3)nc(NC3CCOCC3)nc12 [Compound 54, (E)-N-(3-(((8-isopropyl-2-((tetrahydro-2H-pyran-4-yl)amino)pyrazolo[1,5-a][1,3,5]triazin-4-yl)amino)methyl)phenyl)-4-(pyrrolidin-1-yl)but-2-enamide]",< 300,–,98
"C=CC(=O)N1CCCCC1C(=O)Nc1cccc(CNc2nc(NC3CCOCC3)nc3c(C(C)C)cnn23)c1F (centres unmarked) [Compound 35, 1-acryloyl-N-(2-fluoro-3-(((8-isopropyl-2-((tetrahydro-2H-pyran-4-yl)amino)pyrazolo[1,5-a][1,3,5]triazin-4-yl)amino)methyl)phenyl)piperidine-2-carboxamide]",< 300,–,99
"C=CC(=O)N[C@H]1CC[C@@H](C(=O)Nc2cccc(CNc3nc(NC4CCOCC4)nc4c(C(C)C)cnn34)c2)CC1 [Compound 7, (1,4-cis)-4-acrylamido-N-(3-(((8-isopropyl-2-((tetrahydro-2H-pyran-4-yl)amino)pyrazolo[1,5-a][1,3,5]triazin-4-yl)amino)methyl)phenyl)cyclohexane-1-carboxamide]",> 1000,–,91
"C=CC(=O)N1C(C)CCCC1C(=O)Nc1cccc(CNc2nc(NC3CCOCC3)nc3c(C(C)C)cnn23)c1 (centres unmarked) [Compound 40C, 1-acryloyl-N-(3-(((8-isopropyl-2-((tetrahydro-2H-pyran-4-yl)amino)pyrazolo[1,5-a][1,3,5]triazin-4-yl)amino)methyl)phenyl)-6-methylpiperidine-2-carboxamide]",< 300,–,–
"CC(C)c1cnn2c(Nc3cccc(C(=O)NC4CCCN(C(=O)/C=C/CN(C)C)C4)c3)nc(OC3CCN(C)CC3)nc12 (centres unmarked) [Compound 133, (E)-N-(1-(4-(dimethylamino)but-2-enoyl)piperidin-3-yl)-3-((8-isopropyl-2-((1-methylpiperidin-4-yl)oxy)pyrazolo[1,5-a][1,3,5]triazin-4-yl)amino)benzamide]",< 300,–,97
"C=CC(=O)N1CCOCC1C(=O)Nc1cncc(CNc2nc(NC3CCOCC3)nc3c(C(C)C)cnn23)c1 (centres unmarked) [Compound 40, 4-acryloyl-N-(5-(((8-isopropyl-2-((tetrahydro-2H-pyran-4-yl)amino)pyrazolo[1,5-a][1,3,5]triazin-4-yl)amino)methyl)pyridin-3-yl)morpholine-3-carboxamide]",< 300,–,99
"C=CC(=O)N1CCCCC1C(=O)Nc1cc(F)cc(CNc2nc(NC3CCOCC3)nc3c(C(C)C)cnn23)c1 (centres unmarked) [Compound 36, 1-acryloyl-N-(3-fluoro-5-(((8-isopropyl-2-((tetrahydro-2H-pyran-4-yl)amino)pyrazolo[1,5-a][1,3,5]triazin-4-yl)amino)methyl)phenyl)piperidine-2-carboxamide]",300 to 1000,–,91
"C=CC(=O)N1CCN(C(=O)Oc2cccc(CNc3nc(NC4CCOCC4)nc4c(C(C)C)cnn34)c2)CC1 [Compound 46, 3-(((8-isopropyl-2-((tetrahydro-2H-pyran-4-yl)amino)pyrazolo[1,5-a][1,3,5]triazin-4-yl)amino)methyl)phenyl 4-acryloylpiperazine-1-carboxylate]",< 300,–,98
"C#CC(=O)N1CCC1C(=O)Nc1cccc(CNc2nc(NC3CCOCC3)nc3c(C(C)C)cnn23)c1 (centres unmarked) [Compound 66, N-(3-(((8-isopropyl-2-((tetrahydro-2H-pyran-4-yl)amino)pyrazolo[1,5-a][1,3,5]triazin-4-yl)amino)methyl)phenyl)-1-propioloylazetidine-2-carboxamide]",< 300,–,98
"CC(C)c1cnn2c(NCc3cc(NC(=O)C4CCN(C(=O)/C=C/CN(C)C)C4)ccc3F)nc(NC3CCOCC3)nc12 (centres unmarked) [Compound 70, (E)-1-(4-(dimethylamino)but-2-enoyl)-N-(4-fluoro-3-(((8-isopropyl-2-((tetrahydro-2H-pyran-4-yl)amino)pyrazolo[1,5-a][1,3,5]triazin-4-yl)amino)methyl)phenyl)pyrrolidine-3-carboxamide]",300 to 1000,–,85

# From patent US11186576B2, “Pyrazolo[1,5-A][1,3,5]triazine and pyrazolo[1,5-A]pyrimidine derivatives as CDK inhibitors” (Aurigene Discovery Technologies Limited, priority 2015, dated 2021)
